Assay results taken from patent publication US20110091484A1, “Compositions and methods for preventing or treating a viral infection” (priority 2005, published 2011).
“And” between values parts separate entries of the source, which are not always exact repeats. Identical values can stand only once.

Tested on: WR vaccinia virus-infected 143B cell cultures
Type: in vivo, mice

CC(C)Cn1cnc2c(N)nc3ccccc3c21 [Imiquimod]
% Inhibition (plaque inhibition): 13% and 22.6%
